{
  "source": "paper PMC9331678",
  "about": "(Molecules, 2022)",
  "key": {"[1]": {"test": "6 h benchtop (early preanalytical) stability in whole blood and in plasma", "type": "in vitro ADME, human", "description": "Six independent plasma samples were processed. The reference solutions were 140 µL acetonitrile-water 4:1 (v/v) mixtures spiked as described above. The mixtures and the reference solutions were subsequently diluted with 90 µL water. Internal standard-corrected matrix factors were calculated as the peak area ratios of the analytes and the internal standards in prepared plasma versus those in a neat solution. In the stability studies, the recoveries of IBR and DIB were calculated as the ratio of the concentrations measured after incubation and those measured at the beginning of the study.\nThe preanalytical stability of IBR and DIB was evaluated by adding 20 µL methanol solutions containing 500 ng/mL IBR and DIB to two 1.0 mL aliquots of blood freshly drawn into phlebotomy tubes containing K3-EDTA. Three samples, 3 mL each, were taken from three healthy volunteers (manuscript authors G.B.K., I.V. and Z.K.). One of the fractions was centrifuged at 3000 rpm and 10 °C for 10 min immediately after spiking the analytes, and plasma was separated. Both spiked whole blood and the separated plasma were kept at ambient temperature for 6 h. […] Fifty microliters was drawn from the supernatant of the whole blood sample as well as from the plasma, and was processed as described in Section 2.2."}, "[2]": {"test": "Stability in plasma at −70 °C", "type": "in vitro ADME"}, "[3]": {"conditions": "population modeling study; cited from earlier work"}, "[4]": {"test": "24 h therapeutic monitoring and noncompartmental pharmacokinetics in chronic lymphocytic leukemia patients receiving IBR", "conditions": "plasma; for mean DIB/IBR concentration ratio: three patients; for concentration at 0.5 h: 0.5 h postdose; for concentration at 1 h: 1 h postdose", "experimental": "In order to provide a proof of concept, IBR and DIB were assayed in the plasma samples of three patients treated with IBR. […] The criteria for inclusion were (1) age of ≥18 years, (2) treatment ongoing with IBR for more than 10 days, and (3) no concurrent administration of medications undergoing CYP3A4 metabolism. The subjects gave their written informed consent. Each participant took either two or three 140 mg Imbruvica capsules, as per the therapeutic provision, in the presence of the recruiting clinician.\nBlood samples were centrifuged at 3000 rpm for 10 min in a Hettich Universal 320R centrifuge (Auro-Science, Budapest, Hungary) at 10 °C. Plasma was separated and frozen at −70 °C until analysis was done within 2 weeks."}, "[5]": {"conditions": "Patient 1, 420 mg IBR per day, steady state"}, "[6]": {"conditions": "Patient 2, 420 mg IBR per day, steady state"}, "[7]": {"conditions": "Patient 3, 280 mg IBR per day, steady state"}, "[8]": {"conditions": "human, oral, 280 mg/day, Conc., subj=3 (280 mg IBR per day)"}, "[9]": {"conditions": "human, oral, 420 mg, Conc., subj=1 (420 mg IBR per day)"}},
  "data": [
    {"smiles": "Nc1ncnc2c1c(-c1ccc(Oc3ccccc3)cc1)nn2[C@@H]1CCCN(C(=O)C(O)CO)C1", "note": "(stereo partly drawn) [Dihydrodiol Ibrutinib, 1-[(3R)-3-[4-amino-3-(4-phenoxyphenyl)pyrazolo[3,4-d]pyrimidin-1-yl]piperidin-1-yl]-2,3-dihydroxypropan-1-one]", "values": [
      {"measurement": "recovery at 9.8 ng/mL", "setting": "[1]; human, plasma (separated from spiked K3-EDTA whole blood), plasma, ambient temperature (25 °C), up to 6 h, all analyses", "result": "≥ 85", "unit": "%"},
      {"measurement": "stability", "setting": "[1]; whole blood and plasma kept at ambient temperature for 6 h", "result": "acceptable for clinical use"},
      {"measurement": "cases with recoveries lower than 85% (of fifteen analyses)", "setting": "[1]; whole blood, ambient temperature (25 °C), up to 6 h", "result": "one"},
      {"measurement": "stability in plasma", "setting": "[2]", "result": 3, "unit": "month"},
      {"measurement": "interindividual variability in the clearance", "setting": "[3]", "result": 51, "unit": "%"},
      {"measurement": "intraindividual variability in the clearance", "setting": "[3]", "result": 26, "unit": "%"},
      {"measurement": "AUC0–24", "setting": "[4]; [5]", "result": 2347, "unit": "nmol·L/h"},
      {"measurement": "AUMC0–24", "setting": "[4]; [5]", "result": "16,593 nmol × L"},
      {"measurement": "AUC0–24", "setting": "[4]; [6]", "result": 2528, "unit": "nmol·L/h"},
      {"measurement": "AUMC0–24", "setting": "[4]; [6]", "result": "11,626 nmol × L"},
      {"measurement": "AUC0–24", "setting": "[4]; [7]", "result": 1800, "unit": "nmol·L/h"},
      {"measurement": "AUMC0–24", "setting": "[4]; [7]", "result": 8172, "unit": "nmol·L"},
      {"measurement": "mean DIB/IBR concentration ratio", "setting": "[4]; at 4 h postdose", "result": "2.36 ± 1.69"},
      {"measurement": "mean DIB/IBR concentration ratio", "setting": "[4]; at the trough (23–24 h)", "result": "3.34–3.44"},
      {"measurement": "mean DIB/IBR concentration ratio", "setting": "[4]; between 0.5–2 h postdose", "result": "0.96–1.19"},
      {"measurement": "AUC", "setting": "[4]; human, oral, 280 mg, AUCALL AUC All, subj=3 (280 mg IBR per day), steady state", "result": 1.8, "unit": "µM·h"},
      {"measurement": "AUC(0-inf)", "setting": "[4]; human, oral, 280 mg, AUCIFO AUC Infinity Obs, subj=3 (280 mg IBR per day), steady state", "result": 1.88, "unit": "µM·h"},
      {"measurement": "AUC(0-inf)", "setting": "[4]; human, oral, 280 mg, AUCIFP AUC Infinity Pred, subj=3 (280 mg IBR per day), steady state", "result": 1.88, "unit": "µM·h"},
      {"measurement": "AUC", "setting": "[4]; human, oral, 280 mg, AUCLST AUC to Last Nonzero Conc, subj=3 (280 mg IBR per day), steady state", "result": 1.8, "unit": "µM·h"},
      {"measurement": "Cmax", "setting": "[4]; human, oral, 280 mg, CMAX Max Conc, subj=3 (280 mg IBR per day), steady state", "result": 217, "unit": "nM"},
      {"measurement": "k el", "setting": "[4]; human, oral, 280 mg, LAMZ Lambda z, subj=3 (280 mg IBR per day), steady state", "result": "3.39e-05", "unit": "s⁻¹"},
      {"measurement": "half-life", "setting": "[4]; human, oral, 280 mg, LAMZHL Half-Life Lambda z, subj=3 (280 mg IBR per day), steady state", "result": 5.68, "unit": "h"},
      {"measurement": "MRT last", "setting": "[4]; human, oral, 280 mg, MRT0–24, Patient 3, 280 mg IBR per day, steady state", "result": 4.54, "unit": "h"},
      {"measurement": "MRT", "setting": "[4]; human, oral, 280 mg, MRTEVIFO MRT Extravasc Infinity Obs, subj=3 (280 mg IBR per day), steady state", "result": 5.75, "unit": "h"},
      {"measurement": "MRT", "setting": "[4]; human, oral, 280 mg, MRTEVIFP MRT Extravasc Infinity Pred, subj=3 (280 mg IBR per day), steady state", "result": 5.72, "unit": "h"},
      {"measurement": "MRT", "setting": "[4]; human, oral, 280 mg, MRTEVLST MRT Extravasc to Last Nonzero Conc, subj=3 (280 mg IBR per day), steady state", "result": 4.54, "unit": "h"},
      {"measurement": "Cmax", "setting": "[4]; human, oral, 280 mg, cmax, Patient 3, 280 mg IBR per day, steady state", "result": 217, "unit": "nM"},
      {"measurement": "k el", "setting": "[4]; human, oral, 280 mg, ke, Patient 3, 280 mg IBR per day, steady state", "result": "3.39e-05", "unit": "s⁻¹"},
      {"measurement": "half-life", "setting": "[4]; human, oral, 280 mg, t1/2, Patient 3, 280 mg IBR per day, steady state", "result": 5.68, "unit": "h"},
      {"measurement": "Tmax", "setting": "[4]; human, oral, 280 mg, tmax, Patient 3, 280 mg IBR per day, steady state", "result": 2, "unit": "h"},
      {"measurement": "concentration at 24 h", "setting": "[4]; human, oral, 280 mg/day, CLST Last Nonzero Conc, subj=3 (280 mg IBR per day), 24 h", "result": 10.1, "unit": "nM"},
      {"measurement": "concentration at 24 h", "setting": "[4]; human, oral, 280 mg/day, CLSTP Last Nonzero Conc Pred, subj=3 (280 mg IBR per day), 24 h", "result": 9.84, "unit": "nM"},
      {"measurement": "concentration at 0.5 h", "setting": "[4]; [8]", "result": 50.4, "unit": "nM"},
      {"measurement": "concentration at 1 h", "setting": "[4]; [8]", "result": 195, "unit": "nM"},
      {"measurement": "concentration at 2 h", "setting": "[4]; human, oral, 280 mg/day, Conc., subj=3 (280 mg IBR per day), 2 h postdose", "result": 217, "unit": "nM"},
      {"measurement": "concentration at 4 h", "setting": "[4]; human, oral, 280 mg/day, Conc., subj=3 (280 mg IBR per day), 4 h postdose", "result": 113, "unit": "nM"},
      {"measurement": "concentration at 23 h", "setting": "[4]; human, oral, 280 mg/day, Conc., subj=3 (280 mg IBR per day), 23 h postdose", "result": 10.8, "unit": "nM"},
      {"measurement": "concentration at 24 h", "setting": "[4]; human, oral, 280 mg/day, Conc., subj=3 (280 mg IBR per day), 24 h postdose", "result": 10.1, "unit": "nM"},
      {"measurement": "AUC", "setting": "[4]; human, oral, 420 mg, AUCALL AUC All, subj=1 (420 mg IBR per day), steady state", "result": 2.35, "unit": "µM·h"},
      {"measurement": "AUC", "setting": "[4]; human, oral, 420 mg, AUCALL AUC All, subj=2 (420 mg IBR per day), steady state", "result": 2.53, "unit": "µM·h"},
      {"measurement": "AUC(0-inf)", "setting": "[4]; human, oral, 420 mg, AUCIFO AUC Infinity Obs, subj=1 (420 mg IBR per day), steady state", "result": 2.85, "unit": "µM·h"},
      {"measurement": "AUC(0-inf)", "setting": "[4]; human, oral, 420 mg, AUCIFO AUC Infinity Obs, subj=2 (420 mg IBR per day), steady state", "result": 2.63, "unit": "µM·h"},
      {"measurement": "AUC(0-inf)", "setting": "[4]; human, oral, 420 mg, AUCIFP AUC Infinity Pred, subj=1 (420 mg IBR per day), steady state", "result": 2.88, "unit": "µM·h"},
      {"measurement": "AUC(0-inf)", "setting": "[4]; human, oral, 420 mg, AUCIFP AUC Infinity Pred, subj=2 (420 mg IBR per day), steady state", "result": 2.63, "unit": "µM·h"},
      {"measurement": "AUC", "setting": "[4]; human, oral, 420 mg, AUCLST AUC to Last Nonzero Conc, subj=1 (420 mg IBR per day), steady state", "result": 2.35, "unit": "µM·h"},
      {"measurement": "AUC", "setting": "[4]; human, oral, 420 mg, AUCLST AUC to Last Nonzero Conc, subj=2 (420 mg IBR per day), steady state", "result": 2.53, "unit": "µM·h"},
      {"measurement": "concentration at 24 h", "setting": "[4]; human, oral, 420 mg, CLST Last Nonzero Conc, subj=1 (420 mg IBR per day), 24 h", "result": 34.6, "unit": "nM"},
      {"measurement": "concentration at 24 h", "setting": "[4]; human, oral, 420 mg, CLST Last Nonzero Conc, subj=2 (420 mg IBR per day), 24 h", "result": 13.2, "unit": "nM"},
      {"measurement": "concentration at 24 h", "setting": "[4]; human, oral, 420 mg, CLSTP Last Nonzero Conc Pred, subj=1 (420 mg IBR per day), 24 h", "result": 36.5, "unit": "nM"},
      {"measurement": "concentration at 24 h", "setting": "[4]; human, oral, 420 mg, CLSTP Last Nonzero Conc Pred, subj=2 (420 mg IBR per day), 24 h", "result": 13, "unit": "nM"},
      {"measurement": "Cmax", "setting": "[4]; human, oral, 420 mg, CMAX Max Conc, subj=1 (420 mg IBR per day), steady state", "result": 185, "unit": "nM"},
      {"measurement": "Cmax", "setting": "[4]; human, oral, 420 mg, CMAX Max Conc, subj=2 (420 mg IBR per day), steady state", "result": 254, "unit": "nM"},
      {"measurement": "concentration at 0.5 h", "setting": "[4]; [9]", "result": 53.4, "unit": "nM"},
      {"measurement": "concentration at 1 h", "setting": "[4]; [9]", "result": 139, "unit": "nM"}
    ]}
  ]
}
